# Data from ChEMBL document CHEMBL4007425, “Drug Repurposing of Histone Deacetylase Inhibitors That Alleviate Neutrophilic Inflammation in Acute Lung Injury and Idiopathic Pulmonary Fibrosis via Inhibiting Leukotriene A4 Hydrolase and Blocking LTB4 Biosynthesis” (J Med Chem, 2017).
# Activity calls are given as the source filed them. The rule behind the calls is not given here.
# Key:
# Mus musculus [1] = experiment: Protection against BLM-induced lung fibrosis in C57BL/6 mouse assessed as TGF-beta1 level at 25 mg/kg, ip qd for 7 days post BLM challenge measured on day 7 by ELISA (reference value: 75.39 pg/ml); format: functional
# Mus musculus [2] = organism: Mus musculus; settings: C57BL/6, at 25 mg/kg
# Description: Inhibition of LTB4 biosynthesis in LPS-induced C57BL/6 mouse model of acute lung injury BLAF at 25 mg/kg, ip by ELISA
# Mus musculus [3] = experiment: Protection against BLM-induced lung fibrosis in C57BL/6 mouse assessed as reduction in hydroxyproline level at 25 mg/kg, ip qd for 7 days post BLM challenge measured on day 14; format: functional; settings: C57BL/6, ip
# Mus musculus [4] = experiment: Anti-inflammatory activity in BLM-induced C57BL/6 mouse model of acute lung injury assessed as reduction in IL-6 level in BALF at 10 and 25 mg/kg, ip qd for 7 days post BLM challenge measured on day 7 by ELISA; format: functional, organism-based
# Mus musculus [5] = experiment: Anti-inflammatory activity in BLM-induced C57BL/6 mouse model of acute lung neutrophilic inflammation assessed as LTB4 level at 25 mg/kg, ip qd for 7 days post BLM challenge measured on day 7 (reference value: 139.23 pg/ml); format: functional
# Mus musculus [6] = experiment: Anti-inflammatory activity in BLM-induced C57BL/6 mouse model of acute lung injury assessed as reduction in IL-1beta level in BALF at 10 and 25 mg/kg, ip qd for 7 days post BLM challenge measured on day 7 by ELISA; format: functional, organism-based
# Mus musculus [7] = experiment: Anti-inflammatory activity in BLM-induced C57BL/6 mouse model of acute lung neutrophilic inflammation assessed as reduction neutrophil count at 50 mg/kg, ip qd for 7 days post BLM challenge measured on day 7; format: functional, organism-based
# Mus musculus [8] = experiment: Anti-inflammatory activity in BLM-induced C57BL/6 mouse model of acute lung neutrophilic inflammation assessed as MPO activity at 25 mg/kg, ip qd for 7 days post BLM challenge measured on day 7 (reference value: 0.98 U/g); format: functional
# Mus musculus [9] = experiment: Anti-inflammatory activity in LPS-induced C57BL/6 mouse model of acute lung injury assessed as reduction in TNFalpha level pretreated intraperitoneally for 1 hr followed LPS challenge after 24 hrs by ELISA; format: functional
# Mus musculus [10] = experiment: Anti-inflammatory activity in LPS-induced C57BL/6 mouse model of acute lung injury assessed as reduction in IL-6 level pretreated intraperitoneally for 1 hr followed LPS challenge after 24 hrs by ELISA; format: functional
# Mus musculus [11] = experiment: Anti-inflammatory activity in LPS-induced C57BL/6 mouse model of acute lung injury assessed as reduction in pathological changes at 10 to 50 mg/kg, ip pretreated for 1 hr followed LPS challenge measured after 24 hrs by hematoxylin and eosin staining based microscopy; format: functional, organism-based
# Mus musculus [12] = experiment: Anti-inflammatory activity in LPS-induced C57BL/6 mouse model of acute lung injury assessed as reduction in alveolar vascular permeability at 10 to 50 mg/kg, ip pretreated for 1 hr followed LPS challenge measured after 24 hrs by Evans blue dye based microscopy; format: functional, organism-based
# Mus musculus [13] = experiment: Anti-inflammatory activity in BLM-induced C57BL/6 mouse model of acute lung injury assessed as reduction in IL-6 level in BALF at 25 and 50 mg/kg, ip qd for 7 days post BLM challenge measured on day 7 by ELISA; format: functional, organism-based
# Mus musculus [14] = experiment: Anti-inflammatory activity in BLM-induced C57BL/6 mouse model of acute lung neutrophilic inflammation assessed as reduction in number of lymphocytes in BALF at 25 and 50 mg/kg, ip qd for 7 days post BLM challenge measured on day 7; format: functional, organism-based
# Mus musculus [15] = experiment: Anti-inflammatory activity in BLM-induced C57BL/6 mouse model of acute lung neutrophilic inflammation assessed as reduction in number of neutrophils in BALF at 25 and 50 mg/kg, ip qd for 7 days post BLM challenge measured on day 7; format: functional, organism-based
# Mus musculus [16] = experiment: Anti-inflammatory activity in LPS-induced C57BL/6 mouse model of acute lung injury assessed as reduction in IL-1beta level pretreated intraperitoneally for 1 hr followed LPS challenge after 24 hrs by ELISA; format: functional
# Plasma [17] = experiment: Plasma concentration in human; format: ADME, cell-free
# Mus musculus [18] = experiment: Anti-inflammatory activity in BLM-induced C57BL/6 mouse model of acute lung neutrophilic inflammation assessed as reduction neutrophil count at 25 mg/kg, ip qd for 7 days post BLM challenge measured on day 7; format: functional, organism-based
# Plasma [19] = experiment: Plasma concentration in mouse by liquid chromatography mass spectrometry; format: ADME, cell-free
# Mus musculus [20] = experiment: Anti-inflammatory activity in LPS-induced C57BL/6 mouse model of acute lung injury assessed as reduction in hyperemia of pulmonary alveolar septa at 10 to 50 mg/kg, ip pretreated for 1 hr followed LPS challenge measured after 24 hrs by hematoxylin and eosin staining based microscopy; format: functional, organism-based
# Mus musculus [21] = experiment: Anti-inflammatory activity in BLM-induced C57BL/6 mouse model of acute lung injury assessed as reduction in IL-1beta level in BALF at 25 and 50 mg/kg, ip qd for 7 days post BLM challenge measured on day 7 by ELISA; format: functional, organism-based
# Mus musculus [22] = experiment: Anti-inflammatory activity in LPS-induced C57BL/6 mouse model of acute lung injury assessed as reduction in neutrophil infiltration by measuring MPO activity at 10 to 50 mg/kg, ip pretreated for 1 hr followed LPS challenge measured after 24 hrs; format: functional, organism-based
# Mus musculus [23] = experiment: Protection against BLM-induced lung fibrosis in C57BL/6 mouse assessed as reduction in deposition of collagen fibers at 25 and 50 mg/kg, ip qd for 7 days post BLM challenge measured on day 7 by Massons trichrome staining based method; format: functional, organism-based
# Mus musculus [24] = experiment: Anti-inflammatory activity in BLM-induced C57BL/6 mouse model of acute lung neutrophilic inflammation assessed as protein concentration in BALF at 50 mg/kg, ip qd for 7 days post BLM challenge measured on day 7 (reference value: 2.39 mg/ml); format: functional
# Mus musculus [25] = experiment: Anti-inflammatory activity in LPS-induced C57BL/6 mouse model of acute lung injury assessed as reduction in IL-6 mRNA level pretreated intraperitoneally for 1 hr followed LPS challenge after 24 hrs by qRT-PCR method; format: functional
# Mus musculus [26] = experiment: Anti-inflammatory activity in BLM-induced C57BL/6 mouse model of acute lung neutrophilic inflammation assessed as reduction in macrophage number in BALF at 25 and 50 mg/kg, ip qd for 7 days post BLM challenge measured on day 7; format: functional, organism-based
# Mus musculus [27] = experiment: Anti-inflammatory activity in LPS-induced C57BL/6 mouse model of acute lung injury assessed as reduction in TNFalpha mRNA level pretreated intraperitoneally for 1 hr followed LPS challenge after 24 hrs by qRT-PCR method; format: functional
# Mus musculus [28] = experiment: Protection against BLM-induced lung fibrosis in C57BL/6 mouse assessed as TGF-beta1 level at 25 and 50 mg/kg, ip qd for 7 days post BLM challenge measured on day 14 by qRT-PCR method; format: functional, organism-based
# Mus musculus [29] = experiment: Anti-inflammatory activity in BLM-induced C57BL/6 mouse model of acute lung neutrophilic inflammation assessed as LTB4 level at 50 mg/kg, ip qd for 7 days post BLM challenge measured on day 7 (reference value: 139.23 pg/ml); format: functional
smiles,measurement,setting,value
CN(C)c1ccc(C(=O)NCCCCCCC(=O)NO)cc1,Activity,Mus musculus [1],31.74 pg/mL
same,inhibition,Mus musculus [2],Active
same,inhibition in vivo at 25 mg/kg,Mus musculus [3],34%
same,Activity,Mus musculus [4],Active
same,Activity,Mus musculus [5],37.23 pg/mL
same,Activity,Mus musculus [6],Active
same,Activity,Mus musculus [7],Active
same,Activity,Mus musculus [8],0.56 U/g
O=C(CCCCCCC(=O)Nc1ccccc1)NO [VORINOSTAT],Activity,Mus musculus [9],Dose-dependent effect
same,Activity,Mus musculus [10],Dose-dependent effect
same,Activity,Mus musculus [11],Active
same,Activity,Mus musculus [12],Active
same,Activity,Mus musculus [13],Active
same,Activity,Mus musculus [14],Active
same,Activity,Mus musculus [15],Active
same,Activity,Mus musculus [16],Dose-dependent effect
same,concentration,Plasma [17],0.01 to 6 µM
same,Activity,Mus musculus [18],Active
same,concentration,Plasma [19],1 to 10 µM
same,Activity,Mus musculus [20],Active
same,Activity,Mus musculus [21],Active
same,Activity,Mus musculus [22],Active
same,Activity,Mus musculus [23],Active
same,Activity,Mus musculus [24],1.79 mg/mL
same,Activity,Mus musculus [25],Dose-dependent effect
same,Activity,Mus musculus [26],Active
same,Activity,Mus musculus [27],Dose-dependent effect
same,Activity,Mus musculus [28],Active
same,Activity,Mus musculus [29],43.19 pg/mL
